Data: patent US11865126B2, “Method for treating anxiety disorders, headache disorders, and eating disorders with psilocybin” (priority 2019, dated 2024)

Test system: healthy subjects
Assay: Scale of Social Responsibility (SSR)
Format: in vivo, human
Experimental: In some embodiments, the Scale of Social Responsibility (SSR) is utilized to evaluate the safety and/or efficacy of psilocybin. The SSR measures perceptions regarding the importance of ethics and social responsibility.
The following list of outcome measures are non-exhaustive. • a. The short-term change from Baseline (Day −1 [Visit 2]) to Day 7 (Visit 5) in cognitive measures of attention, spatial and working memory and executive function was measured by a composite score of the CANTAB Panel (Spatial Working Memory [SWM], Rapid Visual Information Processing [RVP], Paired Associates Learning [PAL]). • b. The short-term change from Baseline (Day −1 [Visit 2]) to Day 7 (Visit 5) in Social Cognition Panel scales (Pictorial Empathy Test [PET], Reading the Mind in the Eyes Test [RMET], Toronto Empathy Questionnaire [TEQ], Social Value Orientation [SVO], Scale of Social Responsibility [SSR]). • c. The change from Baseline (Day −1 [Visit 2]) to Day 28 (Visit 6) in cognitive measures of attention, spatial and working memory and executive function as measured by a composite score of the CANTAB Panel (SWM, RVP, PAL). • d. The long-term change from Baseline (Day −1 [Visit 2]) to Day 84 (Visit 7) in Social Cognition Panel scales (PET, RMET, TEQ, SVO, SSR). • e. Dose-related differences between cognitive effects of psilocybin at Baseline (Day −1 [Visit 2]), Day 7 (Visit 5) and Day 28 (Visit 6), as measured by a composite score of the CANTAB Panel (SWM, RVP, PAL). • f. Dose-related differences between psychological effects of psilocybin at Baseline (Day −1 [Visit 2]), Day 7 (Visit 5) and Day 84 (Visit 7), as measured by Social Cognition Panel scales (PET, RMET, TEQ, SVO, SSR). • g. Differences in cognitive effects of psilocybin between psilocybin-naïve and experienced subjects at Baseline (Day −1 [Visit 2]), Day 7 (Visit 5) and Day 28 (Visit 6), as measured by a composite score of the CANTAB Panel (SWM, RVP, PAL). • h. Differences in Positive and Negative Affect Schedule (PANAS) after study drug administration on Day 0 (Visit 3). • i. Differences between psilocybin and placebo in the Emotion Recognition Test (ERT), Intra-Extra Dimensional Set Shift (IED), One Touch Stockings (OTS), Verbal Fluency and Digit Span Forward at Day 7 (Visit 5). • j. A composite score of the CANTAB Panel, including the following tests: • i. Spatial Working Memory (SWM) (performed at Visit 2, Visit 5, and Visit 6). • ii. Rapid Visual Information Processing (RVP) (performed at Visit 2, Visit 5, and Visit 6). • iii. Paired Associates Learning (PAL) (performed at Visit 2, Visit 5, and Visit 6). • k. Cognitive Flexibility Panel • i. Emotion Recognition Task (ERT) (performed at Visit 5). • ii. Intra-Extra Dimensional Set Shift (IED) (performed at Visit 5). • iii. One Touch Stockings (OTS) (performed at Visit 5). • iv. Verbal Fluency (performed at Visit 5). • v. Digit Span Forward (performed at Visit 5). • l. Five Dimension Altered States of Consciousness questionnaire (5D-ASC) (performed at Visit 3). • m. PANAS (performed at Visit 2 and Visit 3). • n. NEO-Five Factor Inventory (NEO-FFI) (performed at Visit 2, Visit 5, and Visit 7). • o. Symptom Checklist-90 item (SCL-90) (performed at Visit 2, Visit 5, and Visit 7). • p. Life Changes Inventory (LCI): The LCI measures changes in attitudes and values after near-death experiences often used to evaluate personal transformation following spiritually oriented experiences and practices. (performed at Visit 5 and Visit 7). • q. Social Cognition Panel scales • i. Pictorial Empathy Test (PET) (performed at Visit 2, Visit 5, and Visit 7). • ii. Reading the Mind in the Eyes Test (RMET) (performed at Visit 2, Visit 5, and Visit 7). • iii. Social Value Orientation (SVO) (performed at Visit 2, Visit 5, and Visit 7). • iv. Toronto Empathy Questionnaire (TEQ) (performed at Visit 2, Visit 5, and Visit 7). • v. Scale of Social Responsibility (SSR) (performed at Visit 2, Visit 5, and Visit 7). • r. Sheehan Suicidality Tracking Scale (SSTS) • s. […]

## CN(C)CCc1c[nH]c2cccc(OP(=O)(O)O)c12 [psilocybin]
Day 7, MMRM
  SSR compliance social rules change from baseline, LS mean difference Psilocybin 10 mg - Placebo: 0.0
  SSR compliance social rules change from baseline, LS mean difference Psilocybin 25 mg - Placebo: 0.1
  SSR compliance social rules change from baseline, LS mean difference Psilocybin 25 mg-10 mg: 0.1
  SSR fulfilling expectations change from baseline, LS mean difference Psilocybin 10 mg - Placebo: 0.1
  SSR fulfilling expectations change from baseline, LS mean difference Psilocybin 25 mg - Placebo: 0.2
  SSR fulfilling expectations change from baseline, LS mean difference Psilocybin 25 mg-10 mg: 0.1
  SSR global change from baseline, LS mean difference Psilocybin 10 mg - Placebo: 1.2
  SSR global change from baseline, LS mean difference Psilocybin 25 mg - Placebo: 2.8
  SSR global change from baseline, LS mean difference Psilocybin 25 mg-10 mg: 1.6
Day 84, MMRM
  SSR compliance social rules change from baseline, LS mean difference Psilocybin 10 mg - Placebo: −0.0
  SSR compliance social rules change from baseline, LS mean difference Psilocybin 25 mg - Placebo: 0.1
  SSR compliance social rules change from baseline, LS mean difference Psilocybin 25 mg-10 mg: 0.1
  SSR fulfilling expectations change from baseline, LS mean difference Psilocybin 10 mg - Placebo: −0.1
  SSR fulfilling expectations change from baseline, LS mean difference Psilocybin 25 mg - Placebo: 0.0
  SSR fulfilling expectations change from baseline, LS mean difference Psilocybin 25 mg-10 mg: 0.2
  SSR global change from baseline, LS mean difference Psilocybin 10 mg - Placebo: 0.3
  SSR global change from baseline, LS mean difference Psilocybin 25 mg - Placebo: 2.2
  SSR global change from baseline, LS mean difference Psilocybin 25 mg-10 mg: 1.8
Psilocybin 10 mg, Day 7, MMRM
  SSR fulfilling expectations change from baseline, LS mean: −0.1
Psilocybin 10 mg, Day 84, MMRM
  SSR fulfilling expectations change from baseline, LS mean: 0.2
Psilocybin 25 mg, Day 7, MMRM
  SSR fulfilling expectations change from baseline, LS mean: −0.0
Psilocybin 25 mg, Day 84, MMRM
  SSR fulfilling expectations change from baseline, LS mean: −0.0
